# Source: patent EP3037106A1, “TXA2 inhibitor as stimulator or inducer of MHC Class I cross-presentation” (INSTITUT PASTEUR, priority 2014, dated 2016)
# Entries after “also recorded” stand apart in the source; their conditions may differ.
# How the values were obtained:
# [1] = at 37°C; cited from earlier work
# [2] = test system: bone marrow derived macrophages (BMMs); experiment: FRET assay for antigen cytosolic transfer (CCF4-AM/β-lactamase) in bone marrow derived macrophages; format: cell-based, C57/black-6 mice; conditions: for transfer of β-lactamase to the cytosol (450/535 nm ratio, CCF4 cleavage): compound 15 minutes at 37°C (AACOCF3 0.25mM, baïcalein 1mM, indomethacin 1mM, sulindac sulphide 1mM, ICI192605 1mM, arachidonic acid 80µM), then 1 mg/ml β-lactamase 90 minutes at 37°C; for effect on indomethacin induced transfer of β-lactamase to the cytosol: indomethacin 1mM 15 minutes, then β-lactamase with wortmannin 0.5µM, radicicol 25µM or Pyr41 10µM for 90 minutes at 37°C; for reversal of inhibitor-induced antigen transfer to the cytosol (complementation): after indomethacin 1mM or AACOCF3 0.25mM, diMePGE2 or U46619 10µM added with β-lactamase for 90 minutes at 37°C
# Experimental: Primary Cells and Mice - Bone marrow derived dendritic cells and macrophages were isolated by flushing femur and tibia from 6 to 9 weeks old C57/black-6 mice with ROSWELL PARK MEMORIAL INSTITUTE-1640 (RPMI-1640) supplemented with GLUTAMAX using 5 ml syringes (BD PLASTIPAK) and 0.5 x 16 mm needles 25G 5/8 (BD MicroLance). After centrifugation at 1000 rpm for 4 minutes, cells were resuspended in 1.66% NH4Cl, and put at 4°C for 10 minutes. After centrifugation at 1,000 rpm for 4 minutes, cells were quantified and incubated at 37°C/5% CO2 for 7 to 10 days in RPMI-1640 with GLUTAMAX containing 10% v/v fetal calf serum (GIBCO) and 50µg/ml penicillin/streptomycin (GIBCO). Granulocytes and macrophages-colony stimulating factor (GM-CSF, MILTENIY BIOTEC) and macrophages-colony stimulating factor (M-CSF, PREPROTECH) were added at day 0 at a concentration of 50 ng/ml in order to allow dendritic cells or macrophages differentiation. Dendritic cells were replated every 3 days adding each time fresh GM-CSF. Macrophages were supplemented with fresh M-CSF at day 4 and replated at day 7 with M-CSF at 25ng/ml. Plasmacytoïd and conventional dendritic cells were isolated from C57/black-6 mice spleen using a plasmacytoïd dendritic cell isolation kit (MILTENYI BIOTEC) and a CD8+ dendritic cell isolation kit (MILTENYI BIOTEC). BMDCs, pDCs and cDCs were adhered on 0.01% poly-lysine coated plates in phosphate buffer saline (PBS).
# (§1) FRET assay for antigen cytosolic transfer - 30,000 to 50,000 cells were seeded on 96 well plates and loaded in a mix containing 3.3µM CCF4-AM (INVITROGEN), 1mM probenecid (SIGMA) and 1.5µl solution B (INVITROGEN) in EM buffer (120mM NaCl, 7mM KCI, 1.8mM CaCl2, 0.8mM MgCl2, 5mM glucose and 25mM HEPES at pH 7.3) in a final volume of 30 µl at 37°C. Following 1 mg/ml β-lactamase incubation in EM buffer, cells were washed with 1mM PBS/probenecid and imaged in EM buffer containing 1mM probenecid.
# (§2) Fluorescence microscopy and image analysis - All acquisitions were performed on a NIKON TI WIDEFIELD microscope with a 20X N-Plan Objective. Experiments in triplicates were repeated at least 3 times independently for each condition using 25 pictures per replicate randomly and automatically. Image analysis was performed using custom-designed algorithms as described in Ray et al. 2010 (Cell Microbiol. 12(4): 545-556) and Simeone et al. 2012 (PLoS Pathog. 8(2): e1002507). Briefly, the 450 and 535 nm emission signals were scored automatically for each individual cells on a large set of images using METAMORPH. The quantitative parameters were then exported as an EXCEL file in which the ratio between the intensity of the 450 and 535 nm emission signals were presented as an average of the ratio in the whole cell population. After algorithm processing, mean ratios 450/535 nm from different replicates were obtained and pooled together as an average and the status of cytosolic transfer was assessed. Error bars represent standard deviation.
# [3] = test system: bone marrow derived dendritic cells (BMDCs); experiment: B3Z cross-priming experiments (cross-presentation of ovalbumin); format: cell-based, C57/black-6 mice; conditions: 15 minutes indomethacin 1mM or lactacystine 3µM, serial dilutions of ovalbumin 4 hours, B3Z hybridoma cells 1:1 overnight
# Experimental: B3Z cross-priming experiments - 50,000 BMDCs per well were seeded on poly-L-lysine coated 96 well plates. After treatment with DMSO, 3µM lactacystine, or 1mM indomethacin for 15 minutes in RPMI-1640 complemented with 10% v/v fetal calf serum and 50 µg/ml penicillin/streptomycin at 37°C, cells were incubated with serial dilutions (from 3 to 0.0275 mg/ml) of ovalbumin (EUROMEDEX) for 4 hours. Triplicates were performed for each concentration and serial dilutions of the SIINFEKL 257-264 peptide (POLYPEPTIDE GROUP) were used as positive control (dilutions 1/10 starting from 0.1µg/ml). After 3 washes, cells are incubated overnight with 50,000 B3Z hybridoma cells at 37°C, washed once and subjected to the chlorophenol red-D-galactopyranoside (CPRG) detergent mix containing 100mM β-mercaptoethanol, 100mM MgCl2, 0.125% NP40 and 0.15mM CPRG at 37°C for 4 hours. OD 492 as indicator of β-galactosidase (lacZ) activity produced under the control of the interleukin 2 promoter was subsequently measured by plate reader. Data were obtained from 3 independent experiments and plotted by GRAPHPAD PRISM (error bars: standard deviation).
# [4] = test system: HeLa cells; experiment: FRET assay for antigen cytosolic transfer (CCF4-AM/β-lactamase) in HeLa cells; format: cell-based; conditions: indomethacin 1mM 15 minutes at 37°C, 1 mg/ml β-lactamase 90 minutes
# [5] = test system: BV2 macrophages-like cells; experiment: FRET assay for antigen cytosolic transfer (CCF4-AM/β-lactamase) in BV2 macrophage like cells; format: cell-based, Murine; conditions: indomethacin 1mM 15 minutes; for indomethacin induced transfer of β-lactamase adsorbed to beads or expressed by E. coli: increasing amount of beads adsorbed or E. coli expressed β-lactamase at 37°C for 90 minutes; for indomethacin induced cytosolic transfer as a function of external β-lactamase concentration: increasing amount of β-lactamase at 37°C for 90 minutes
# Experimental: Cell lines - Murine Raw and BV2 macrophages like cells were cultured in RPMI-1640 with GLUTAMAX (GIBCO) containing 10% v/v fetal calf serum (GIBCO) and 50 µg/ml penicillin/streptomycin (GIBCO). B3Z were cultured in the same medium but supplemented with 1mg/ml G418 (SIGMA) and 0.4 mg/ml hygromycin B (SIGMA). JAWS-II cells were cultured in Iscove's Modified Dulbecco's Media (IMDM) with L-Glutamine and 25mM HEPES containing 10% v/v fetal calf serum (GIBCO), 50 µg/ml penicillin/streptomycin (GIBCO) and 5ng/ml GM-CSF. All cell lines were maintained at 37°C and 5% CO2.
# Preparation of beads and bacteria - E. coli DH5α were used expressing β-lactamase from a pBAD18 plasmid. After PBS washing, bacteria were re-suspended in EM buffer and the MOI was calibrated by measuring the absorbance of the overnight culture at OD 600nm. 3µm polystyrene beads (TEBU-BIO) were washed once before adsorption with β-lactamase at 4°C on a rotating wheel overnight. After PBS washing, beads were re-suspended in PBS buffer.
# as §1, §2
# [6] = test system: bone marrow derived macrophages (BMMs); experiment: Cytosolic delivery of fluorescent antigens (Cy3-dextran, Cy3-β-lactamase, Cy3) by widefield microscopy; format: cell-based, C57/black-6 mice; conditions: indomethacin 1mM 15 minutes; for transfer of fluorescent dextran to the cytosol: 10-kDa Cy3-dextran 1 mg/ml for 90 minutes; for transfer of Cy3-labelled β-lactamase to the cytosol: Cy3-Bla 0.2 mg/ml for 90 minutes
smiles,measurement,setting,value
"CCCCC[C@H](O)/C=C/[C@H]1O[C@H]2C[C@H](O2)[C@@H]1C/C=C\CCCC(=O)O [TXA2, Thromboxane A2]",half-life,[1],less than one minute
CCCCC/C=C\C/C=C\C/C=C\C/C=C\CCCC(=O)O [arachidonic acid],"transfer of β-lactamase to the cytosol (450/535 nm ratio, CCF4 cleavage)",[2],triggered cytosolic access of our model antigen β-lactamase
"CCCCC[C@H](O)/C=C/[C@H]1[C@H](O)CC(=O)[C@@H]1C/C=C\CCCC(=O)O [PGE2, prostaglandin E2]",half-life,[1],less than one minute
"O=C(O)CC/C=C\CC1COC(c2ccccc2Cl)OC1c1ccccc1O (stereo not drawn) [ICI192605, 4-(Z)-6-(2-o-Chlorophenyl-4-o-hydroxyphenyl-1,3-dioxan-cis-5-yl)hexenoic acid]","transfer of β-lactamase to the cytosol (450/535 nm ratio, CCF4 cleavage)",[2],led to a robust antigen transfer
CC(=O)N[C@@H](CSC(=O)[C@]1([C@@H](O)C(C)C)NC(=O)[C@H](C)[C@@H]1O)C(=O)O [lactacystin],"cross-presentation of ovalbumin (B3Z lacZ activity, CPRG)",[3],do not cross-present ovalbumin
"C/C=C/[C@H]1O[C@@](O)([C@@H](C)[C@H](O)[C@H](C)[C@H]2OC(=O)/C(OC)=C/C(C)=C/[C@@H](C)[C@@H](O)[C@@H](C)[C@@H](O)[C@H](C)C/C(C)=C/C=C/[C@@H]2OC)C[C@@H](O[C@H]2C[C@@H](O)[C@H](OC(N)=O)[C@@H](C)O2)[C@@H]1C [conB, Concanamycin B]",cytosolic transfer of β-lactamase on increased endosomal antigen stability,[2]; concanamycin B 25nM or protease inhibitors 1X with β-lactamase for 90 minutes at 37°C,neither conB nor PI incubation led to any cytosolic transfer of β-lactamase
"COc1ccc2c(c1)c(CC(=O)O)c(C)n2C(=O)c1ccc(Cl)cc1 [indomethacin, 1-(4-chlorobenzoyl)-5-methoxy-2-methyl-1H-indole-3-acetic acid]","transfer of β-lactamase to the cytosol (450/535 nm ratio, CCF4 cleavage)",[2],led to a robust cytosolic transfer of beta-lactamase
same,transfer of β-lactamase to the cytosol in HeLa cells,[4],no cytosolic β-lactamase delivery
same,transfer of β-lactamase to the cytosol in HeLa cells,[4]; listed as Indomethacin,does not trigger the transfer of β-lactamase to the cytosol
same,indomethacin induced transfer of β-lactamase adsorbed to beads or expressed by E. coli,[5],same dose-dependency
same,indomethacin induced transfer of β-lactamase adsorbed to beads or expressed by E. coli,[5]; listed as Indomethacin,is also able to trigger the transfer of β-lactamase when adsorbed to beads or expressed by E. coli in BV2 macrophages-like cells in a dose dependent manner
same,indomethacin induced cytosolic transfer as a function of external β-lactamase concentration,[5],dose-dependent on the external concentration of β-lactamase
same,indomethacin induced cytosolic transfer as a function of external β-lactamase concentration,[5]; listed as Indomethacin,depends on the external concentration of β-lactamase
same,transfer of fluorescent dextran to the cytosol,[6],the staining switched to cytosolic staining
same,transfer of fluorescent dextran to the cytosol,[6]; listed as Indomethacin,"triggers the transfer of Cy3 labeled β-lactamase, dextran and Cy3 to the cytosol"
same,transfer of Cy3 alone to the cytosol,"[6]; Cy3 0.2 mg/ml for 90 minutes, listed as Indomethacin","triggers the transfer of Cy3 labeled β-lactamase, dextran and Cy3 to the cytosol"
same,transfer of Cy3-labelled β-lactamase to the cytosol,[6],induced not only the transfer of Cy3-labelled β-lactamase
same,transfer of Cy3-labelled β-lactamase to the cytosol,[6]; listed as Indomethacin,"triggers the transfer of Cy3 labeled β-lactamase, dextran and Cy3 to the cytosol"
same,"cross-presentation of ovalbumin (B3Z lacZ activity, CPRG)",[3],displayed enhanced capacities for cross-priming compared to the DMSO control
same,"cross-presentation of ovalbumin (B3Z lacZ activity, CPRG)",[3]; listed as Indomethacin,promotes cross-presentation of ovalbumin
C[C@@H]1C[C@H]2O[C@@H]2/C=C\C=C\C(=O)Cc2c(Cl)c(O)cc(O)c2C(=O)O1 [radicicol],effect on indomethacin induced transfer of β-lactamase to the cytosol,[2],restrained
"CCCCC/C=C\C/C=C\C/C=C\C/C=C\CCCC(=O)C(F)(F)F [AACOCF3, 1,1,1-trifluoro-6Z,9Z,12Z,15Z-heneicosatetraen-2-one]","transfer of β-lactamase to the cytosol (450/535 nm ratio, CCF4 cleavage)",[2],dramatically and robustly boosted transfer of the model antigen β-lactamase to the cytosol
"CCCCC(C)(C)[C@H](O)/C=C/[C@H]1[C@H](O)CC(=O)[C@@H]1C/C=C\CCCC(=O)O [dimethylPGE2, dimethyl-prostaglandin E2]",reversal of inhibitor-induced antigen transfer to the cytosol (complementation),[2],did not lead to a reversal of the effect of antigen transfer to the cytoplasm
CCCCC[C@H](O)/C=C/[C@@H]1[C@@H](C/C=C\CCCC(=O)O)[C@H]2CO[C@@H]1C2 [U46619],reversal of inhibitor-induced antigen transfer to the cytosol (complementation),[2],reduced the inhibitor-induced antigen transfer to the cytosol
CCOC(=O)c1ccc(N2NC(=O)/C(=C/c3ccc([N+](=O)[O-])o3)C2=O)cc1 [Pyr41],effect on indomethacin induced transfer of β-lactamase to the cytosol,[2],decreased cytosolic antigen transfer induced by indomethacin; also recorded: restrained
